According to ChEMBL document CHEMBL1201862, “PubChem BioAssay data set” (2004):
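Where inhibition never reached the appropriate level, the endpoint shown equals the highest concentration tested. Otherwise, values were interpolated linearly from a five-concentration, 48-hour dose response in 96-well plates. The concentration for 50% growth inhibition is given as GI50.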 The source made the active and inactive calls. No stated cut-off is given here; in the data, active = GI50 up to about 1.1 µM and inactive = higher.

Experiments:
Test in all cases: growth of human tumour cells (NCI), 48 h
[1] = test system: CCRF-CEM
[2] = test system: NCI-H226
[3] = test system: UO-31
[4] = test system: MCF7
[5] = test system: SF-539
[6] = test system: NCI-H460
[7] = test system: Hs-578T
[8] = test system: HOP-92
[9] = test system: HOP-62
[10] = test system: COLO 205
[11] = test system: OVCAR-4
[12] = test system: KM12
[13] = test system: Malme-3M
[14] = test system: 786-0
[15] = test system: BT-549
[16] = test system: MDA-N
[17] = test system: NCI-H522
[18] = test system: ACHN
[19] = test system: MDA-MB-435
[20] = test system: K562
[21] = test system: RPMI-8226
[22] = test system: MDA-MB-231
[23] = test system: MOLT-4
[24] = test system: SNB-19
[25] = test system: OVCAR-8
[26] = test system: UACC-62
[27] = test system: SF-268
[28] = test system: NCI-H23
[29] = test system: M14
[30] = test system: RXF 393
[31] = test system: SK-MEL-2
[32] = test system: SW-620
[33] = test system: SNB-75
[34] = test system: CAKI-1
[35] = test system: IGROV-1
[36] = test system: A498
[37] = test system: HT-29
[38] = test system: A549
[39] = test system: EKVX
[40] = test system: TK-10
[41] = test system: SR
[42] = test system: OVCAR-3
[43] = test system: PC-3
[44] = test system: HCT-15
[45] = test system: SN12C
[46] = test system: SK-MEL-28
[47] = test system: HCT-116
[48] = test system: HL-60
[49] = test system: DU-145
[50] = test system: SF-295
[51] = test system: U-251
[52] = test system: UACC-257
[53] = test system: T47D
[54] = test system: LOX IMVI
[55] = test system: NCI/ADR-RES
[56] = test system: SK-MEL-5
[57] = test system: OVCAR-5
[58] = test system: SK-OV-3
[59] = test system: HCC 2998

Question: `Oc1ccc(Cl)cc1/C=N/c1cnc2ccccc2c1` was tested. Which GI50 [1] did it give?
Answer: Its GI50 is 1.52 µM (inactive).

Question: And the GI50 [2]?
Answer: Its GI50 is 55.2 µM (inactive).

Question: And the GI50 [3]?
Answer: The GI50 was 45.6 µM (inactive).

Question: What about the GI50 [4] of the same compound?
Answer: Its GI50 is 22.6 µM (inactive).

Question: And the GI50 [5]?
Answer: Its GI50 is 13.4 µM (inactive).

Question: What about the GI50 [6] of the same compound?
Answer: The GI50 was 33.7 µM (inactive).

Question: What about the GI50 [7] of the same compound?
Answer: The GI50 was > 68.9 µM (inactive).

Question: What about the GI50 [8] of the same compound?
Answer: Its GI50 is 28.1 µM (inactive).

Question: And the GI50 [9]?
Answer: The GI50 was 35.5 µM (inactive).

Question: And the GI50 [10]?
Answer: Its GI50 is 53.8 µM (inactive).

Question: And the GI50 [11]?
Answer: Its GI50 is 27.4 µM (inactive).

Question: What about the GI50 [12] of the same compound?
Answer: The GI50 was 30.6 µM (inactive).

Question: And the GI50 [13]?
Answer: Its GI50 is > 70.6 µM (inactive).

Question: And the GI50 [14]?
Answer: Its GI50 is 37.9 µM (inactive).

Question: And the GI50 [15]?
Answer: The GI50 was 22.3 µM (inactive).

Question: And the GI50 [16]?
Answer: Its GI50 is 34.7 µM (inactive).

Question: And the GI50 [17]?
Answer: Its GI50 is > 86.7 µM (inactive).

Question: What about the GI50 [18] of the same compound?
Answer: Its GI50 is > 57.1 µM (inactive).

Question: What about the GI50 [19] of the same compound?
Answer: The GI50 was 36.7 µM (inactive).

Question: And the GI50 [20]?
Answer: Its GI50 is 10.2 µM (inactive).

Question: What about the GI50 [21] of the same compound?
Answer: Its GI50 is 13.1 µM (inactive).

Question: What about the GI50 [22] of the same compound?
Answer: Its GI50 is 32.6 µM (inactive).

Question: And the GI50 [23]?
Answer: Its GI50 is 2.84 µM (inactive).

Question: And the GI50 [24]?
Answer: Its GI50 is 29 µM (inactive).

Question: And the GI50 [25]?
Answer: Its GI50 is 27 µM (inactive).

Question: What about the GI50 [26] of the same compound?
Answer: The GI50 was 32.7 µM (inactive).

Question: What about the GI50 [27] of the same compound?
Answer: The GI50 was 29.1 µM (inactive).

Question: And the GI50 [28]?
Answer: The GI50 was 33.9 µM (inactive).

Question: What about the GI50 [29] of the same compound?
Answer: Its GI50 is 16.9 µM (inactive).

Question: What about the GI50 [30] of the same compound?
Answer: Its GI50 is > 100 µM (inactive).

Question: What about the GI50 [31] of the same compound?
Answer: The GI50 was 27.2 µM (inactive).

Question: What about the GI50 [32] of the same compound?
Answer: Its GI50 is 24.8 µM (inactive).

Question: And the GI50 [33]?
Answer: The GI50 was 33.1 µM (inactive).

Question: And the GI50 [34]?
Answer: The GI50 was > 100 µM (inactive).

Question: And the GI50 [35]?
Answer: Its GI50 is 16 µM (inactive).

Question: What about the GI50 [36] of the same compound?
Answer: The GI50 was > 100 µM (inactive).

Question: What about the GI50 [37] of the same compound?
Answer: The GI50 was 36.6 µM (inactive).

Question: And the GI50 [38]?
Answer: Its GI50 is > 92.7 µM (inactive).

Question: And the GI50 [39]?
Answer: Its GI50 is 29.7 µM (inactive).

Question: And the GI50 [40]?
Answer: The GI50 was > 100 µM (inactive).

Question: What about the GI50 [41] of the same compound?
Answer: Its GI50 is 18.8 µM (inactive).

Question: What about the GI50 [42] of the same compound?
Answer: Its GI50 is 14.5 µM (inactive).

Question: What about the GI50 [43] of the same compound?
Answer: The GI50 was 14.3 µM (inactive).

Question: And the GI50 [44]?
Answer: The GI50 was 4.4 µM.

Question: And the GI50 [45]?
Answer: Its GI50 is 30.3 µM (inactive).

Question: What about the GI50 [46] of the same compound?
Answer: Its GI50 is > 68.9 µM (inactive).

Question: And the GI50 [47]?
Answer: The GI50 was 11.3 µM (inactive).

Question: And the GI50 [48]?
Answer: The GI50 was 4.56 µM (inactive).

Question: What about the GI50 [49] of the same compound?
Answer: Its GI50 is 41.5 µM (inactive).

Question: And the GI50 [50]?
Answer: Its GI50 is 36.7 µM (inactive).

Question: What about the GI50 [51] of the same compound?
Answer: The GI50 was 11.9 µM (inactive).

Question: And the GI50 [52]?
Answer: The GI50 was 5.01 µM (inactive).

Question: What about the GI50 [53] of the same compound?
Answer: The GI50 was 4.81 µM (inactive).

Question: What about the GI50 [54] of the same compound?
Answer: The GI50 was 8.17 µM (inactive).

Question: And the GI50 [55]?
Answer: Its GI50 is 27.7 µM (inactive).

Question: And the GI50 [56]?
Answer: Its GI50 is 27.5 µM (inactive).

Question: And the GI50 [57]?
Answer: Its GI50 is > 100 µM (inactive).

Question: And the GI50 [58]?
Answer: The GI50 was 33.3 µM (inactive).

Question: What does the source list for `Cc1nc(O)nc2nc3ccc(Cl)cc3c(NCCNCCO)c12`?
Answer: GI50 [1]: 9.27 µM (inactive); GI50 [2]: 13.1 µM (inactive); GI50 [3]: 8.65 µM (inactive); GI50 [4]: 13.6 µM (inactive); GI50 [5]: 7.16 µM (inactive); GI50 [6]: 12.5 µM (inactive); GI50 [7]: 13.5 µM (inactive); GI50 [8]: 11.4 µM (inactive); GI50 [9]: 8.05 µM (inactive); GI50 [10]: 8.99 µM (inactive); GI50 [11]: 12.4 µM (inactive); GI50 [12]: 10.8 µM (inactive); GI50 [13]: 15.2 µM (inactive); GI50 [14]: 8.75 µM (inactive); GI50 [15]: 16.7 µM (inactive); GI50 [16]: 12.8 µM (inactive); GI50 [17]: 3.21 µM (inactive); GI50 [18]: 14.3 µM (inactive); GI50 [19]: 13 µM (inactive); GI50 [20]: 8.59 µM (inactive); GI50 [21]: 42.9 µM (inactive); GI50 [22]: 11.7 µM (inactive); GI50 [23]: 7.53 µM (inactive); GI50 [24]: 9.06 µM (inactive); GI50 [25]: 9.46 µM (inactive); GI50 [26]: 12 µM (inactive); GI50 [27]: 10.1 µM (inactive); GI50 [28]: 8.77 µM (inactive); GI50 [29]: 12.1 µM (inactive); GI50 [30]: 14.6 µM (inactive); GI50 [31]: 14.9 µM (inactive); GI50 [32]: 6.87 µM (inactive); GI50 [34]: 12.2 µM (inactive); GI50 [35]: 12.3 µM (inactive); GI50 [36]: 20.3 µM (inactive); GI50 [37]: 10.3 µM (inactive); GI50 [38]: 17.4 µM (inactive); GI50 [39]: 11.4 µM (inactive); GI50 [40]: 18.7 µM (inactive); GI50 [41]: 8.07 µM (inactive); GI50 [42]: 12.5 µM (inactive); GI50 [43]: 13.7 µM (inactive); GI50 [44]: 17.9 µM; GI50 [45]: 7.18 µM (inactive); GI50 [46]: 17.5 µM (inactive); GI50 [47]: 5.85 µM (inactive); GI50 [48]: 90.4 µM (inactive); GI50 [49]: 16 µM (inactive); GI50 [50]: 16.3 µM (inactive); GI50 [51]: 8.73 µM (inactive); GI50 [52]: 12.4 µM (inactive); GI50 [53]: 10.3 µM (inactive); GI50 [54]: 8.83 µM (inactive); GI50 [55]: 19.4 µM (inactive); GI50 [56]: 12.3 µM (inactive); GI50 [57]: 13.2 µM (inactive); GI50 [59]: 13.6 µM (inactive); GI50 [58]: 11.4 µM (inactive)
